Assay results published in ChEMBL document CHEMBL6114981, “Research progress of flavonoids targeting estrogen receptor in the treatment of breast cancer” (Bioorg Med Chem, 2025).

Legend:
[1] = test system: MCF7; test: Antiproliferative activity against human MCF7 cells
[2] = Downregulation of ERalpha expression in human MCF7 cells measured for 24 hrs by Western blot analysis; conditions: MCF7, 24 h
[3] = test system: MCF7; test: Antiproliferative activity against human MCF-7 cells assessed as reduction in cell viability incubated for 48 hrs by MTT assay; conditions: MCF7, 48 h
[4] = test system: MDA-MB-231; test: Antiproliferative activity against human MDA-MB-231 cells assessed as reduction in cell viability by MTT assay
[5] = test system: MCF7; test: Antiproliferative activity against human MCF7 cells assessed as reduction in cell viability by MTT assay
[6] = test system: Ishikawa; test: Antiproliferative activity against human Ishikawa cells assessed as reduction in cell viability incubated for 48 hrs by MTT assay
[7] = test system: MCF7; test: Cytotoxicity against human MCF7 cells assessed as reduction in cell viability incubated for 24 hrs by MTT assay; conditions: MCF7, 24 h
[8] = target: T1, Aromatase (Homo sapiens, UniProt P11511); test: Binding affinity to human placental aromatase in MCF7 cells assessed as inhibition constant
T1 sequence (P11511 whole entry): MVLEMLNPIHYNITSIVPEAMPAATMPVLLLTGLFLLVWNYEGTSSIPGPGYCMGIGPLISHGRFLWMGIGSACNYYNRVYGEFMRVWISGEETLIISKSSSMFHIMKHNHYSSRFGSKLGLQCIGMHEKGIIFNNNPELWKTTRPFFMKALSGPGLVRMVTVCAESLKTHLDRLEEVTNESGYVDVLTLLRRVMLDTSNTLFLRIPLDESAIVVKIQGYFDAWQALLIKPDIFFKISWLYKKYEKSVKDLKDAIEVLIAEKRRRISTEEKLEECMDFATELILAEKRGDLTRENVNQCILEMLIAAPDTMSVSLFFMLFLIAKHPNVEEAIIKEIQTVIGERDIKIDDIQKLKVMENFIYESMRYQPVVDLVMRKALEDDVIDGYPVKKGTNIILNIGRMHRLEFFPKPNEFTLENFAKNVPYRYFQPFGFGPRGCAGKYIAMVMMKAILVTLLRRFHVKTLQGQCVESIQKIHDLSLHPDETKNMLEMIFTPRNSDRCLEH

[9] = test system: MCF7; test: Cytotoxicity against human MCF7 cells
[10] = test system: HEK-293T; test: Cytotoxicity against HEK293T cells; conditions: Homo sapiens

Question: For `CC1=C(c2ccc(OC(=O)C(C)(C)C)cc2)[C@H](c2ccc(OCCN3CCCCC3)cc2)Oc2cc(OC(=O)C(C)(C)C)ccc21`, which IC50 [1] is on record?
Answer: 0.58 nM

Question: For `O=C(O)/C=C/c1ccc(Cc2c(-c3ccccc3)c(=O)oc3cc(O)ccc23)cc1`, which IC50 [2] is on record?
Answer: 1180 nM

Question: With `Cc1cc(OC(F)(F)F)ccc1-c1c(Oc2ccc(/C=C/C(=O)O)cc2)c2ccc(O)cc2oc1=O` as the compound, how does the IC50 [2] read?
Answer: 3 nM

Question: Which IC50 [2] does the source give for `Cc1cc(OC(F)(F)F)ccc1-c1c(Oc2ccc(/C=C/C(=O)O)cc2)c2ccccc2oc1=O` here?
Answer: 810 nM

Question: Which IC50 [3] does the source give for `O=c1oc2cc(O)ccc2c(Oc2ccc(OCCN3CCCCC3)cc2)c1-c1ccc(F)cc1` here?
Answer: 2190 nM

Question: For `COc1ccc(C(=O)C2=C(Oc3ccc(/C=C/C(=O)O)cc3)c3ccc(O)cc3OC2)cc1`, which IC50 [2] is on record?
Answer: 100 nM

Question: With `COc1ccc(-c2c(C(=O)c3ccc(OCCN4CCCCC4)cc3)c3ccc(OC)cc3oc2=O)cc1` as the compound, how does the IC50 [4] read?
Answer: 12700 nM

Question: And the IC50 [5]?
Answer: 5700 nM

Question: For `COc1cc2c(cc1C(=O)c1ccc(OCCN3CCCCC3)cc1)C=C(c1ccccc1)C(C)(C)O2`, which IC50 [6] is on record?
Answer: 17700 nM

Question: With `CN1CCN(c2ccc(-c3cc(=O)c4ccccc4o3)cc2)CC1` as the compound, how does the IC50 [1] read?
Answer: 2720 nM

Question: Which IC50 [7] does the source give for `CC1=C(c2cc(F)cc(F)c2)[C@@H](c2ccc(/C=C/CN3CC(CF)C3)cc2)Oc2cc(O)ccc21` here?
Answer: 69.9 nM

Question: Which IC50 [7] does the source give for `C[C@@H]1OC(Oc2cc(O)c3c(=O)c(O[C@H]4OC[C@@](O)(CO)[C@@H]4O)c(-c4ccc(O)cc4)oc3c2)[C@H](O)[C@H](O)[C@H]1O` (stereo partly specified) here?
Answer: 48 nM

Question: Which Ki [8] does the source give for `COc1cc(O)c2c(c1)OC(c1ccc(O)cc1)CC2=O` (single isomer, unassigned) [SAKURANETIN] here?
Answer: 1200 nM

Question: With `CC1=C(c2ccc(O)cc2)[C@H](c2ccc(OCCN3CCCCC3)cc2)Oc2cc(O)ccc21` [ACOLBIFENE] as the compound, how does the IC50 [1] read?
Answer: 0.32 nM

Question: Which Ki [8] does the source give for `COc1ccc(-c2cc(=O)c3c(O)cc(OC)cc3o2)cc1` [APIGENIN DIMETHYLETHER] here?
Answer: 2100 nM

Question: With `CC1=C(c2cc(F)cc(F)c2)[C@H](c2ccc(/C=C/CN3CC(CF)C3)cc2)Oc2cc(O)ccc21` [BEXIRESTRANT] as the compound, how does the IC50 [7] read?
Answer: 0.3 nM

Question: With `O=c1c(O)c(-c2ccc(O)c(O)c2)oc2cc(O)ccc12` [FISETIN] as the compound, how does the IC50 [9] read?
Answer: 8500 nM

Question: Which IC50 [9] does the source give for `COc1cc(O)c2c(=O)cc(-c3ccc(OC)c(-c4c(O)cc(O)c5c(=O)cc(-c6ccc(O)cc6)oc45)c3)oc2c1` [GINKGETIN] here?
Answer: 10000 nM

Question: For `O=C1C[C@@H](c2ccccc2)Oc2cc(O)cc(O)c21` [PINOCEMBRIN], which Ki [8] is on record?
Answer: 10800 nM

Question: With `O=c1c(O)c(-c2ccc(O)c(O)c2)oc2cc(O)cc(O)c12` [QUERCETIN] as the compound, how does the IC50 [10] read?
Answer: 1200 nM

Question: Which Ki [8] does the source give for `C=C(C)[C@H]1Cc2c(ccc3c2O[C@@H]2COc4cc(OC)c(OC)cc4[C@@H]2C3=O)O1` [ROTENONE] here?
Answer: 300 nM
